Reference: patent US20040208864A1, “Methods of improving health-related quality of life in individuals with systemic lupus erythematosus” (priority 2002, published 2004)
“Also recorded” adds a separate entry of the source.

Legend:
[1] = system: SLE patients; experiment: SF-36 health-related quality of life, Phase III (90-09) trial of LJP 394 vs placebo; type: in vivo, human; conditions: for Longitudinal differences in HRQOL (SF-36 domain scores) drug-treated vs placebo-treated: various time points, all patients
Procedure: Patients were treated with weekly doses of 100 mg of LJP 394 or with placebo. Patients were also permitted to receive certain other treatments including some but not all immunosuppressive drugs using a definition similar to Example 2. This randomized, double-blind, placebo-controlled study was conducted at more than 70 major medical centers in North America and Europe. Patients could remain in the study for up to 92 weeks.
The prospectively defined analysis groups were the intent-to-treat population and patients with impaired renal function. The intent-to-treat population was defined as patients with high-affinity antibodies to LJP 394. The patients with high-affinity antibodies to LJP 394 were those with a Kd′<0.8 mg/ml. Patients with impaired renal function were defined as having a serum creatinine level of 1.5 mg/dL to 3.5 mg/dL at baseline. In general, patients with impaired renal function are at greater risk of progressing to renal flare, kidney failure, and dialysis.
Complement changes were evaluated by determining the mean change from baseline in the complement protein C3 that indicates overall complement consumption due to active inflammation. Antibody changes were evaluated by determining the mean percent change of antibodies to dsDNA from baseline. Patients' assessments of disease activity and health-related quality of life were measured on a regular basis as well as at the time of, and 30 days following, a documented renal flare.
Two studies (Phase II/III or 90-05, and Phase III or 90-09) were conducted as described in Examples 1-2 and 12. […] Patients completed the SF-36® assessment at entry, followed by three additional time points in the trial depending on how long they participated. […] The Phase II/III trial enrolled 198 lupus patients with high-affinity antibodies who were treated for up to 18 months.
As described above in the detailed description of the invention, HRQOL is an assessment of a patient's sense of physical and mental well-being or how they feel. In the Phase II/III and Phase III studies, HRQOL was measured by a standard scoring instrument called the Medical Outcomes Study 36-Item Short Form (SF-36′). The SF-36® Health Survey is a standardized tool used in clinical research to measure a patient's assessment of quality of life outcomes related to disease and disease treatment. The Survey asked 36 questions related to how well a patient can perform day-to-day activities and how they feel emotionally. The answers were then reported as scores in eight domains. These domains are physical functioning, role-physical, bodily pain, general health, vitality, social functioning, role-emotional and mental health. SF-36@ was measured in both Phase III and II/III.

[2] = system: B cells; conditions: rats; cited from earlier work

With “abetimus sodium (sense GTGTGTGTGTGTGTGTGTGT; antisense CACACACACACACACACACA; sense: DNA, backbone not given here; antisense: DNA, backbone and methylation of C not given here; four deoxynucleotide duplexes bound to triethylene glycol valency platform) [LJP 394, tetravalent conjugate: four (CA)10.(TG)10 double-stranded 20-mer oligonucleotides on a triethylene glycol based valency platform]” the “Mean SF-36 domain scores after renal flare compared with placebo” value ([1]; after renal flare) was “remained better than placebo patients; also recorded: remained better than placebo patients'”, the “Mean SF-36 domain scores before renal flare compared with placebo” value ([1]; before renal flare) was “improved HRQOL scores before the renal flare compared with placebo; also recorded: higher for LJP394 treated patients in all domains” and the “SF-36 domain score changes pre/post renal flare compared with placebo” value ([1]; pre vs post renal flare) was “seven of eight domains; also recorded: better HRQOL compared with Placebo patients in all domains except physical functioning”. The “Longitudinal differences in HRQOL (SF-36 domain scores) drug-treated vs placebo-treated” value [1] was “not significantly different”, the “Longitudinal differences in HRQOL (SF-36 domain scores) drug-treated vs placebo-treated” value ([1]; listed as Riquent™) was “No substantive differences” and the “Induction of antigen-specific B-cell tolerance” value [2] was “induce antigen-specific B-cell tolerance”.
